According to ChEMBL document CHEMBL1153785, “Antimalarial activity of azafluorenone alkaloids from the Australian tree Mitrephora diversifolia” (J Nat Prod, 2009):

Tests used:
HEK293 = test: Cytotoxicity against human HEK293 cells up to 120 uM after 72 hrs by Alamar blue assay; type: cell-based; conditions: hek293, 72 h
Plasmodium falciparum [1] = test: Antimalarial activity against chloroquine-resistant Plasmodium falciparum Dd2 at 120 uM after 72 hrs by DAPI staining method
Plasmodium falciparum [2] = test: Antimalarial activity against chloroquine-sensitive Plasmodium falciparum 3D7 at 120 uM after 72 hrs by DAPI staining method; type: functional
Plasmodium falciparum [3] = test: Antimalarial activity against chloroquine-resistant Plasmodium falciparum Dd2 after 72 hrs by DAPI staining method; conditions: Dd2, 72 h
Plasmodium falciparum [4] = test: Antimalarial activity against chloroquine-sensitive Plasmodium falciparum 3D7 after 72 hrs by DAPI staining method; type: functional, organism-based; conditions: 3D7, 72 h
[5] = Cytotoxicity against human HEK293 cells at 120 uM after 72 hrs by Alamar blue assay; type: cell-based; conditions: read-out: GI

| IC50 (Plasmodium falciparum [3]) | IC50 (Plasmodium falciparum [4]) | SMILES | Activity (HEK293) | Activity (Plasmodium falciparum [1]) | Activity (Plasmodium falciparum [2]) | inhibition at 72 h, 120 µM [5] |
| --- | --- | --- | --- | --- | --- | --- |
| – | – | COc1cc(O)c2c(c1O)-c1nccc(C)c1C2=O | Non-toxic | 80% | 87% | – |
| 11.4 µM | 9.9 µM | COc1ccc2c(c1O)-c1nccc(C)c1C2=O | – | – | – | 96% |
